Measured values from US10766882B2, “1,2-naphthoquinone based derivative and method of preparing the same” (YUNGJIN PHARM. CO., LTD., priority 2013, dated 2020).

System: Cells
Experiment: Measurement of lactate change amount within cells
Type: cell-based
Conditions: PCA extract of cells, lactate measured from supernatant (Megazyme, K-LATE)
Procedure: Cells were treated with 400 μl of 6% PCA, and then collected and extracted. Centrifugation (13,000 rpm, 10 min) was performed. A precipitate was dried using a Speed-Vac and then a weight of dried precipitate was measured. A supernatant was neutralized using 400 μl of 1 M KOH and a final volume thereof was adjusted to 1 ml using 0.33 M KH2PO4/K2HPO4, pH 7.5. Centrifugation (13,000 rpm, 10 min) was performed and the amount of lactate was measured from a supernatant (Megazyme, K-LATE).

| Structure (SMILES) | Lactate change amount within cells (nmol/mg cell) |
| --- | --- |
| CC(C)c1nc2c(n1C)-c1ccccc1C(=O)C2=O [Example 3, 2-isopropyl-1-methyl-1H-naphtho[2,1-d]imidazole-4,5-dione] | 11.3 |
| O=C1C(=O)c2[nH]c(-c3ccccc3)nc2-c2ccccc21 [Example 4, 2-phenyl-3H-naphtho[2,1-d]imidazole-4,5-dione] | 9.1 |
| CC(C)(C)c1nc2c([nH]1)C(=O)C(=O)c1ccccc1-2 [Example 5, 2-tert-butyl-3H-naphtho[2,1-d]imidazole-4,5-dione] | 8.5 |
| O=C1C(=O)c2[nH]c(C3CCCCC3)nc2-c2ccccc21 [Example 6, 2-cyclohexyl-3H-naphtho[2,1-d]imidazole-4,5-dione] | 4.6 |
| CC(C)Cc1nc2c([nH]1)C(=O)C(=O)c1ccccc1-2 [Example 8] | 10.0 |
| CCc1nc2c([nH]1)C(=O)C(=O)c1ccccc1-2 [Example 9] | 8.0 |
| O=C1C(=O)c2[nH]c(C3CC3)nc2-c2ccccc21 [Example 12] | 7.0 |
| CC(C)c1nc2c([nH]1)C(=O)C(=O)c1cc(Cl)ccc1-2 [Example 17] | 6.0 |
| CC(C)c1nc2c([nH]1)C(=O)C(=O)c1cc(N)ccc1-2 [Example 18] | 6.6 |
| CC(C)c1nc2c([nH]1)C(=O)C(=O)c1cc(F)ccc1-2 [Example 22] | 7.3 |
| CC(C)c1nc2c([nH]1)C(=O)C(=O)c1cc(N(C)C)ccc1-2 [Example 23] | 5.6 |
| CCc1nc2c([nH]1)C(=O)C(=O)c1cc(F)ccc1-2 [Example 26] | 5.7 |
| CCc1nc2c([nH]1)C(=O)C(=O)c1cc(NCc3ccc(F)cc3)ccc1-2 [Example 47] | 5.9 |
| CC(C)(C)OC(=O)N(Cc1nc2c([nH]1)C(=O)C(=O)c1ccccc1-2)c1ccccc1 [Example 48] | 5.1 |
| O=C1C(=O)c2[nH]c(CNc3ccccc3)nc2-c2ccccc21 [Example 49] | 5.2 |
| O=C1C(=O)c2[nH]c(COc3ccccc3)nc2-c2ccccc21 [Example 78] | 8.0 |

Target: NQO1 protein (Homo sapiens, UniProt P15559)
Sequence (P15559 whole entry, species assumed): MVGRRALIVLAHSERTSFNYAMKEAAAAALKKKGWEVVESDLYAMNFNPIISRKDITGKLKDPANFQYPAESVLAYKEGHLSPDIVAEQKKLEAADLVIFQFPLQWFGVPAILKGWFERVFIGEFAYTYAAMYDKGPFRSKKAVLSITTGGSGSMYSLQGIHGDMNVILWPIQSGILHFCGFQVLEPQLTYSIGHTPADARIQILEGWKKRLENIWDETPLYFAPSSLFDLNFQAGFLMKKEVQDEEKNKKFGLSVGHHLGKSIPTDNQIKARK
Experiment: NQO1 activity measurement (cytochrome C reduction)
Type: biochemical
Conditions: 5 ng NQO1 protein, 200 μM NADH, 77 μM cytochrome C, 37° C., absorbance 550 nm for 10 minutes
Procedure: An enzyme reaction solution included 25 mM Tris/HCl (pH 7.4), 0.14% bovine serum albumin, 200 μM NADH, 77 μM cytochrome C, and 5 ng of NQO1 protein. Enzymatic reaction was initiated by adding NADH and performed at 37° C. In this regard, a reaction rate was measured by observing absorbance, which was increased due to reduction of cytochrome C, at 550 nm for 10 minutes and NQO1 activity was represented as an amount of reduced cytochrome C [nmol cytochrome C reduced/min/μg protein].
Extinction coefficient for cytochrome C:21.1 mmol/L/cm=21.1 μmol/ml/cm

| Structure (SMILES) | NQO1 activity (5 μM, [nmol cytochrome C reduced/min/μg protein]) |
| --- | --- |
| CC(C)c1nc2c(n1C)-c1ccccc1C(=O)C2=O [Example 3, 2-isopropyl-1-methyl-1H-naphtho[2,1-d]imidazole-4,5-dione] | 139 nmol cytochrome C reduced/min/μg protein |
| O=C1C(=O)c2[nH]c(-c3ccccc3)nc2-c2ccccc21 [Example 4, 2-phenyl-3H-naphtho[2,1-d]imidazole-4,5-dione] | 122 nmol cytochrome C reduced/min/μg protein |
| CC(C)(C)c1nc2c([nH]1)C(=O)C(=O)c1ccccc1-2 [Example 5, 2-tert-butyl-3H-naphtho[2,1-d]imidazole-4,5-dione] | 153 nmol cytochrome C reduced/min/μg protein |
| O=C1C(=O)c2[nH]c(C3CCCCC3)nc2-c2ccccc21 [Example 6, 2-cyclohexyl-3H-naphtho[2,1-d]imidazole-4,5-dione] | 253 nmol cytochrome C reduced/min/μg protein |
| CC(C)Cc1nc2c([nH]1)C(=O)C(=O)c1ccccc1-2 [Example 8] | 213 nmol cytochrome C reduced/min/μg protein |
| CCc1nc2c([nH]1)C(=O)C(=O)c1ccccc1-2 [Example 9] | 172 nmol cytochrome C reduced/min/μg protein |
| O=C1C(=O)c2[nH]c(C3CC3)nc2-c2ccccc21 [Example 12] | 184 nmol cytochrome C reduced/min/μg protein |
| CC(C)c1nc2c([nH]1)C(=O)C(=O)c1cc(Cl)ccc1-2 [Example 17] | 206.9 nmol cytochrome C reduced/min/μg protein |
| CC(C)c1nc2c([nH]1)C(=O)C(=O)c1cc(N)ccc1-2 [Example 18] | 177.5 nmol cytochrome C reduced/min/μg protein |
| CC(C)c1nc2c([nH]1)C(=O)C(=O)c1cc(F)ccc1-2 [Example 22] | 206.1 nmol cytochrome C reduced/min/μg protein |
| CC(C)c1nc2c([nH]1)C(=O)C(=O)c1cc(N(C)C)ccc1-2 [Example 23] | 78.4 nmol cytochrome C reduced/min/μg protein |
| CCc1nc2c([nH]1)C(=O)C(=O)c1cc(F)ccc1-2 [Example 26] | 223.5 nmol cytochrome C reduced/min/μg protein |
| CCc1nc2c([nH]1)C(=O)C(=O)c1cc(NCc3ccc(F)cc3)ccc1-2 [Example 47] | 41.0 nmol cytochrome C reduced/min/μg protein |
| CC(C)(C)OC(=O)N(Cc1nc2c([nH]1)C(=O)C(=O)c1ccccc1-2)c1ccccc1 [Example 48] | 59.8 nmol cytochrome C reduced/min/μg protein |
| O=C1C(=O)c2[nH]c(CNc3ccccc3)nc2-c2ccccc21 [Example 49] | 128.4 nmol cytochrome C reduced/min/μg protein |
| O=C1C(=O)c2[nH]c(COc3ccccc3)nc2-c2ccccc21 [Example 78] | 81.7 nmol cytochrome C reduced/min/μg protein |

System: C57BL/6J Lep ob/ob mice
Experiment: Weight loss effects in obese mice (ob/ob)
Type: in vivo
Conditions: Exp. Ex. 3-3, FIG. 3: 11 week-old ob/ob mice, 100 mg/kg oral, total of 6 days, vs 0.1% SLS controls
Procedure: 10 week-old C57BL/6J Lep ob/ob mice having genetic obesity characteristics available from ORIENTBIO were prepared. Two mice were raised in each polycarbonate breeding cage (200 W×260 L×130H (mm), Three-shine) in which temperature was 20 to 24° C., relative humidity was 35 to 65%, illuminance was 150 to 300 lux, night and day were 12 hours, and exhaust was performed at 10 to 15 air changes per hour. As a feed, low fat diet (11.9 kcal % fat, 5053, Labdiet) manufactured by ORIENTBIO was used. The feed was contained in a feeder and free intake was allowed. As drinking water, water, which was contained in a 250 mL polycarbonate based bottle, purified through a filter and a sterilizer was used and free intake was allowed.
The compound according to Example 1 synthesized in the present invention was orally administered to three C57BL/6J Lep ob/ob mice in amounts of 40 mg/kg, 80 mg/kg, and 120 mg/kg, respectively, once every day for two weeks. For administration, a disposable syringe fitted with a sonde for oral administration was used and 10 ml/kg of the compound was orally administered into the stomach. As controls, three C57BL/6J Lep ob/ob mice were administered 0.1% sodium lauryl sulfate (SLS) in an amount of 120 mg/kg in the same manner as described above. After administration, a time-dependent weight increase ratio, weight change, and intake amount were measured and results are illustrated in FIG. 1 below.
Weights of the experimental animals were measured immediately before administration of a test material and seven times a week from an administration initiation day to a test termination day. Increased total weights were calculated by subtracting weights measured on an experiment initiation day from weights measured one day before an experiment termination day. Food intake amounts were calculated by measuring feed supply amounts and remaining amounts twice a week from an initiation day of test material administration to a test termination day for each individual. […]
(§1) Experiments were performed under the same conditions as in Experimental Example 3-1 except that 15 week-old C57BL/6J Lep ob/ob mice having genetic obesity characteristics available from ORIENTBIO were prepared, the compounds according to Examples 5 and 6 were administered to three C57BL/6J Lep ob/ob mice in an amount of 150 mg/kg, 150 mg/kg of 0.1% SLS was administered to each of three C57BL/6J Lep ob/ob mice as controls, and experiments were performed for a total of one week. Weight increase ratios, weight change, and intake amounts depending on administration time were measured and results are illustrated in FIG. 5 below.
as §1, with “that 10” for “that 15”, “Examples 8, 9,” for “Examples 5”, “and 12” for “and 6”, “FIG. 6” for “FIG. 5”
Experiments were performed under the same conditions as in Experimental Example 3-1 except that 6 week-old C57BL/6J Lep ob/ob mice having genetic obesity characteristics available from ORIENTBIO were prepared, the compounds according to Examples 17, 18, 22, and 23 were administered to three C57BL/6J Lep ob/ob mice in an amount of 100 mg/kg, 100 mg/kg of 0.1% SLS was administered to each of three C57BL/6J Lep ob/ob mice as controls, and experiments were performed for a total of one week. Weight increase ratios, weight change, and intake amounts depending on administration time were measured and results are illustrated in FIG. 10 below. […]

| Structure (SMILES) | intake amount | weight increase ratio |
| --- | --- | --- |
| CC(C)c1nc2c(n1C)-c1ccccc1C(=O)C2=O [Example 3, 2-isopropyl-1-methyl-1H-naphtho[2,1-d]imidazole-4,5-dione] | significantly decreased | significantly decreased |

Same assay, conditions: Exp. Ex. 3-4, FIG. 4: 12 week-old ob/ob mice, 150 mg/kg oral, one week, vs 0.1% SLS controls

| Structure (SMILES) | weight change | weight increase ratio | intake amount |
| --- | --- | --- | --- |
| O=C1C(=O)c2[nH]c(-c3ccccc3)nc2-c2ccccc21 [Example 4, 2-phenyl-3H-naphtho[2,1-d]imidazole-4,5-dione] | significantly decreased | significantly decreased | – |
| CC(C)(C)c1nc2c([nH]1)C(=O)C(=O)c1ccccc1-2 [Example 5, 2-tert-butyl-3H-naphtho[2,1-d]imidazole-4,5-dione] | significantly decreased | significantly decreased | significantly decreased |

Same assay, conditions: Exp. Ex. 3-5, FIG. 5: 15 week-old ob/ob mice, 150 mg/kg oral, one week, vs 0.1% SLS controls

| Structure (SMILES) | intake amount | weight change | weight increase ratio |
| --- | --- | --- | --- |
| CC(C)(C)c1nc2c([nH]1)C(=O)C(=O)c1ccccc1-2 [Example 5, 2-tert-butyl-3H-naphtho[2,1-d]imidazole-4,5-dione] | significantly decreased | significantly decreased | significantly decreased |
| O=C1C(=O)c2[nH]c(C3CCCCC3)nc2-c2ccccc21 [Example 6, 2-cyclohexyl-3H-naphtho[2,1-d]imidazole-4,5-dione] | significantly decreased | significantly decreased | significantly decreased |

Same assay, conditions: Exp. Ex. 3-6, FIG. 6: 10 week-old ob/ob mice, 150 mg/kg oral, one week, vs 0.1% SLS controls

| Structure (SMILES) | intake amount | weight change | weight increase ratio |
| --- | --- | --- | --- |
| CC(C)Cc1nc2c([nH]1)C(=O)C(=O)c1ccccc1-2 [Example 8] | significantly decreased | significantly decreased | significantly decreased |
| CCc1nc2c([nH]1)C(=O)C(=O)c1ccccc1-2 [Example 9] | significantly decreased | significantly decreased | significantly decreased |
| O=C1C(=O)c2[nH]c(C3CC3)nc2-c2ccccc21 [Example 12] | significantly decreased | significantly decreased | significantly decreased |

Same assay, conditions: Exp. Ex. 3-7, FIG. 10: 6 week-old ob/ob mice, 100 mg/kg oral, one week, vs 0.1% SLS controls

| Structure (SMILES) | intake amount | weight change | weight increase ratio |
| --- | --- | --- | --- |
| CC(C)c1nc2c([nH]1)C(=O)C(=O)c1cc(Cl)ccc1-2 [Example 17] | significantly decreased in some sections | significantly decreased in some sections | significantly decreased in some sections |
| CC(C)c1nc2c([nH]1)C(=O)C(=O)c1cc(N)ccc1-2 [Example 18] | significantly decreased in some sections | significantly decreased in some sections | significantly decreased in some sections |
| CC(C)c1nc2c([nH]1)C(=O)C(=O)c1cc(F)ccc1-2 [Example 22] | significantly decreased in some sections | significantly decreased in some sections | significantly decreased in some sections |
| CC(C)c1nc2c([nH]1)C(=O)C(=O)c1cc(N(C)C)ccc1-2 [Example 23] | significantly decreased in some sections | significantly decreased in some sections | significantly decreased in some sections |

Same assay, conditions: Exp. Ex. 3-8, FIG. 11: 10 week-old ob/ob mice, 150 mg/kg oral, five days, vs 0.1% SLS controls

| Structure (SMILES) | intake amount | weight change | weight increase ratio |
| --- | --- | --- | --- |
| CCc1nc2c([nH]1)C(=O)C(=O)c1cc(F)ccc1-2 [Example 26] | significantly decreased in some sections | significantly decreased in some sections | significantly decreased in some sections |
